# Measurements reported in patent publication US6884593B1, “Method of identifying properties of substance with respect to human prostaglandin D2 receptors” (BML, Inc., priority 1999, dated 2005).
# What was measured:
# human CRTH2 [1] = biological target: T1, human CRTH2 (Homo sapiens, UniProt Q9Y5Y4); experiment: Down modulation of human CRTH2 molecules from cell surface, KB8 cells; format: cell-based; conditions: 37° C. for one hour, flow cytometer, FIG. 4
# T1 construct: A transformant into which full-length human CRTH2 cDNA is integrated is deposited as B19 cDNA; expressed in transfected cells
# T1 sequence (Q9Y5Y4 1-395): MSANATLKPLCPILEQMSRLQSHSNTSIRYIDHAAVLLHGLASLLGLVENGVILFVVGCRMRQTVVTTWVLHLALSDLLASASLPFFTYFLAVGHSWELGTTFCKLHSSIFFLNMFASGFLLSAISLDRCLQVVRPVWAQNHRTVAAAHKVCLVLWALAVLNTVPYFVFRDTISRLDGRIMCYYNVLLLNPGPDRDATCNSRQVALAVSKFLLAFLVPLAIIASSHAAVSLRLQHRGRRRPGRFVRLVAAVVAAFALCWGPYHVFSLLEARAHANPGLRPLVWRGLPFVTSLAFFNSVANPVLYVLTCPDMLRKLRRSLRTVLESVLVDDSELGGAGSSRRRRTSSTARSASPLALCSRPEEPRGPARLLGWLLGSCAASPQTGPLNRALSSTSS
# Protocol: KB8 cells were suspended in RPMI1640 medium containing 10% fetal bovine serum so as to attain a concentration of 10^6 cells/ml, and cultured at 37° C. for one hour in the presence of a test sample. After completion of culturing, the cells were washed twice with HBSS through centrifugation, to thereby remove cell-free part of the sample. Subsequently, the resultant cells were resuspended in HBSS containing 0.5% bovine serum albumin and 0.05% NaN3, and the resultant suspension was subjected to fluorescence staining by use of anti CRTH2 monoclonal antibody HM16 and phycoerythrin-labeled anti rat immunoglobulin antibody. The average fluorescence intensity of the stained cells was measured by use of a flow cytometer (product of Becton Dickinson), and the fluorescence intensity of the cells treated with the sample was compared with that of non-treated cells (control).
# human CRTH2 [2] = biological target: T1, human CRTH2; experiment: [^3H]PGD2 binding assay, cells expressing human CRTH2 (KB8); conditions: for order of the degree of the binding affinity of prostanoids to human CRTH2: [^3H]PGD2 binding in the presence of unlabeled prostanoids, KB8, FIG. 3; for degree of binding affinity of human CRTH2 compared with that of the DP receptor: comparison human CRTH2 vs DP receptor
# Protocol: Human CRTH2 gene expression plasmid pRc/B19 was prepared by means of a method described in detail in Nagata, K. et al., J. Immunol., 162: 1278-1286, 1999 and Japanese Sai-Kohyo (PCT) Patent Publication WO 97/46677. A transformant into which full-length human CRTH2 cDNA is integrated is deposited as B19 cDNA in National Institute of Bioscience and Human-Technology, Agency of Industrial Science and Technology (deposit number: FERM P-15616), and B19 cDNA can be used after approval is obtained from the depositor. When B19 cDNA is digested with restriction enzymes HindIII and XbaI, and is subcloned into the HindIII/XbaI site of plasmid pRc/CMV (product of Invitrogen), the same expression plasmid as the aforementioned pRc/B19 can be prepared. Through electroporation, the pRc/B19 and control plasmid pRc/CMV were genetically introduced into K562 cells, a human erythroblastic leukemia cell strain, and were subjected to selective culture for two to three weeks in the presence of 400 μg/ml of geneticin (product of SIGMA). Among the K562 cells into which the pRc/B19 had been genetically introduced, the survived cells were added to a 96-well microplate (0.3 cells per well), and then cultured for two to three weeks. The proliferated cell clones were subjected to fluorescence staining by use of an anti human CRTH2 antibody (Nagata, K. et al., J. Immunol., 162: 1278-1286, 1999), and clone KB8, in which human CRTH2 was highly expressed, was obtained. The K562 cells into which the control pRc/CMV had been genetically introduced were selected by use of geneticin, and then culture of the resultant cells was continued while polyclones were present (hereinafter the cells will be referred to as “K562/neo”).
# (§1) Each of KB8 cells, KD36 cells, and K562/neo cells was resuspended in Hank's balanced salt solution (HBSS, product of Gibco BRL) so as to attain a concentration of 3×10^7 cells/ml. The resultant suspension (0.1 ml) was placed in a 0.5-ml microtube, and then cooled on ice. Subsequently, 1 nM of [^3H]PGD2 (product of Amersham) which had been diluted with HBSS was added to the suspension, to thereby allow reaction to proceed on ice for one hour. The reacted cells were placed carefully onto RPMI1640 medium (1 ml) containing 1 M sucrose and 10% fetal bovine serum, the medium having been placed in an 1.5-ml microtube and cooled by ice, and subjected to centrifugation (10,000 revolutions, three minutes) by use of a micro-centrifuge. […] The radiation activity of the cells bound to [^3H]PGD2 was measured by use of a liquid scintillation counter. The radiation activity of the cells when measured, in a manner similar to that described above, in the presence of unlabeled PGD2 (concentration: 200 times or more that of [^3H]PGD2) was used as an index of non-specific binding. […] In contrast, the specific binding of [^3H]PGD2 to KB8 or KD36 is observed.
# (§2) [^3H]PGD2 binding assay described in Example 3 was carried out in the presence of various unlabeled prostanoids (products of Cayman), and the binding affinity of human CRTH2 to various prostanoids was evaluated.
# DP receptor [3] = biological target: T2, DP receptor (Homo sapiens, UniProt Q13258); experiment: [^3H]PGD2 binding assay, cells expressing DP receptor (KD36); conditions: [^3H]PGD2 binding in the presence of unlabeled prostanoids, KD36, FIG. 3
# T2 construct: the coding region of the human DP receptor was amplified through PCR; expressed in transfected cells; cDNA from human small intestine poly(A)+ RNA
# T2 sequence (Q13258 1-359): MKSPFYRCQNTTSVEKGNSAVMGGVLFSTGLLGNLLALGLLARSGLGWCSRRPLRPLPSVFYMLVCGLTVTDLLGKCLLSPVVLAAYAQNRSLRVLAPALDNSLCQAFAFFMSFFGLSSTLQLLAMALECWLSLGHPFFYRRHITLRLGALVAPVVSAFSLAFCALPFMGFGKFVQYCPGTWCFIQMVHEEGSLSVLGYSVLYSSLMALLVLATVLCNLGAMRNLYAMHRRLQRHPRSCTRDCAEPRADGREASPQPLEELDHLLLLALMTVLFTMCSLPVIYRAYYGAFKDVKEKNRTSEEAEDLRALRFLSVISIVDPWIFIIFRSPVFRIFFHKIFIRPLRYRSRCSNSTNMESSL
# Protocol: Human DP receptor cDNA was cloned through RT-PCR on the basis of the nucleotide sequence of human DP receptor cDNA described in Boie, Y. et al., J. Biol. Chem., 270: 18910-18916, 1995 and Japanese Kohyo (PCT) Patent Publication No. 10-507930. Specifically, the cDNA was prepared by use, as an template, of poly(A)+RNA (product of Clonetech) of the human small intestine in which the human DP receptor is highly expressed, and by use of oligo (dT) primer (product of Pharmacia) and MMLV reverse transcriptase (product of Pharmacia). Subsequently, the coding region of the human DP receptor was amplified through PCR (35 heat cycles, each cycle consisting of heating at 94° C. for 1 minute, at 68° C. for 1 minute, and at 72° C. for 1 minute) by use of a forward primer (5′-[…]: SEQ No. 1) containing a restriction enzyme HindIII site, and a reverse primer (5′-[…]: SEQ No. 2) containing an XbaI site. The resultant PCR product was digested with HindIII and XbaI, and subcloned into the HindIII/XbaI site of pRc/CMV. The thus-prepared human DP receptor expression plasmid was introduced into a K562 cell in a manner similar to that described in Example 1, and subjected to selection by use of geneticin and to cloning. The proliferated clones were subjected to the below-described [^3H]PGD2 binding assay, to thereby obtain clone KD36 in which the DP receptor is highly expressed.
# as §1, §2
# DP receptor [4] = biological target: T2, DP receptor; experiment: Intracellular calcium assay, KD36 cells; format: cell-based; conditions: treatment with PGD2 (some nM), Fura-2AM
# Protocol: (§3) Each of KB8 cells, KD36 cells, and K562/neo cells was suspended in RPMI1640 medium containing 10% fetal bovine serum so as to attain a concentration of 5×10^6 cells/ml, and cultured at 37° C. for one hour in the presence of 5 μM of Fura-2AM (product of Dojindo). After completion of culturing, the cells were washed three times with HBSS through centrifugation, to thereby remove free Fura-2AM. Subsequently, the resultant cells were resuspended in HBSS containing 0.1% bovine serum albumin so as to attain a concentration of 10^6 cells/ml. The resultant suspension was placed in a quartz cell (volume: 0.4 ml), and the cell was set in spectrophotometer LS50B (product of PerkinElmer). After a sample was added to the suspension, the time-course change of the ratio of fluorescence intensities (510 nm) at excitation wavelengths of 340 nm and 380 nm was obtained through calculation by use of FL-Winlab software (product of PerkinElmer).
# K562/neo cells = experiment: Intracellular calcium assay, control K562/neo cells; format: cell-based, human; conditions: treatment with PGD2 (0.25-250 nM), Fura-2AM
# Protocol: as §3
# human CRTH2 [5] = biological target: T1, human CRTH2; experiment: Intracellular calcium assay, KB8 cells; format: cell-based; conditions: treatment with PGD2 (some nM), Fura-2AM
# Protocol: as §3
SMILES,down modulation of CRTH2 (average fluorescence intensity vs non-treated control) (human CRTH2 [1]),order of the degree of the binding affinity of prostanoids to human CRTH2 (human CRTH2 [2]),degree of binding affinity of human CRTH2 compared with that of the DP receptor (human CRTH2 [2]),order of the degree of the binding affinity of prostanoids to the DP receptor (DP receptor [3]),concentration of calcium in the cells (DP receptor [4]),concentration of calcium in the cells (K562/neo cells),concentration of calcium in the cells (human CRTH2 [5])
"CCCCCC(=O)CCC1C(=O)CC(O)C1C/C=C\CCCC(=O)O (stereo not shown) [13,14-dihydro-15-keto PGD2]",induce down modulation of CRTH2 significantly as compared with the control,"PGD2≧13,14-dihydro-15-keto PGD2>>prostaglandin J2 (PGJ2)",a great difference exists between human CRTH2 and the DP receptor,"PGE2>13,14-dihydro-15-keto PGD2>15-deoxydelta 12,14-PGJ2",,,
"CCCCC/C=C/C=C1/C(=O)C=CC1C/C=C\CCCC(=O)O (stereo not shown) [15-deoxydelta 12,14-PGJ2]",,"prostaglandin J2 (PGJ2)>15-deoxydelta 12,14-PGJ2≧prostaglandin E2 (PGE2)",,"13,14-dihydro-15-keto PGD2>15-deoxydelta 12,14-PGJ2≧TXB2",,,
"CCCCC[C@H](O)/C=C/[C@H]1C=CC(=O)[C@@H]1C/C=C\CCCC(=O)O [PGA2, prostaglandin A2]",,prostaglandin E2 (PGE2)=prostaglandin A2 (PGA2)>>thromboxane B2 (TXB2),,TXB2≧PGA2,,,
"CCCCC[C@H](O)/C=C/[C@H]1C(=O)C[C@H](O)[C@@H]1C/C=C\CCCC(=O)O [PGD2, Prostaglandin D2]",induce down modulation of CRTH2 significantly as compared with the control,"PGD2≧13,14-dihydro-15-keto PGD2",equal to that of the binding affinity of the DP receptor to PGD2,PGD2=PGJ2,increased considerably,did not vary significantly,increased considerably
"CCCCC[C@H](O)/C=C/[C@H]1[C@H](O)CC(=O)[C@@H]1C/C=C\CCCC(=O)O [PGE2, prostaglandin E2]",does not exert such an effect,"15-deoxydelta 12,14-PGJ2≧prostaglandin E2 (PGE2)=prostaglandin A2 (PGA2)",,"PGJ2>>PGE2>13,14-dihydro-15-keto PGD2",,,
"CCCCC[C@H](O)/C=C/[C@H]1C(=O)C=C[C@@H]1C/C=C\CCCC(=O)O [PGJ2, prostaglandin J2]",,"13,14-dihydro-15-keto PGD2>>prostaglandin J2 (PGJ2)>15-deoxydelta 12,14-PGJ2",,PGD2=PGJ2>>PGE2,,,
"CCCCC[C@H](O)/C=C/[C@H]1OC(O)C[C@H](O)[C@@H]1C/C=C\CCCC(=O)O (stereo partly shown) [TXB2, thromboxane B2]",,prostaglandin A2 (PGA2)>>thromboxane B2 (TXB2),,"15-deoxydelta 12,14-PGJ2≧TXB2≧PGA2",,,
